The values that follow come from the METLIN SMRT retention time set (Domingo-Almenara et al. 2019).

The nature of this series: gradient 5% acetonitrile 3 min, to 50% in 2 min, to 85% in 15 min, held 3 min, 100 µL/min. Conditions: column: Zorbax Extend-C18 2.1 x 50 mm; eluents: water / acetonitrile, 0.1% formic acid. The procedure, abridged:
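A Zorbax Extend-C18 column (2.1 × 50 mm, 1.8 μm) run at 100 μL/min with water and acetonitrile, both containing 0.1% formic acid, separated mixtures of ~100 pure standards. The HPLC was coupled to a quadrupole time-of-flight mass spectrometer operated in positive and negative ionization mode, with dead and dwell volumes of 40 μL and 900 μL. Each retention time was taken from a computationally picked adduct peak that was then manually inspected.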
`CCn1ccc2sc(C)c(C(=O)NCc3cc(C)ccc3C)c2c1=O` yielded an RP-LC retention time of 959 s.

Compound `Cc1nnc2cc(N3CCN(C(=O)Nc4ccc(F)c(Cl)c4)CC3)cnn12` came in with an RP-LC retention time of 658 s.

Compound `O=C(Cn1cccc1-c1nnc(-c2ccccc2)o1)Nc1cccc(Cl)c1` came in with an RP-LC retention time of 1050 s.

`Cc1ccc(NC(=O)C2CCCN(C(=O)C3Sc4ccccc4NC3=O)C2)c(C)c1` (centres undefined) came in with an RP-LC retention time of 762 s.

For `CCOc1ccc(CC(=O)N2CC(=O)Nc3ccccc32)cc1`, the RP-LC retention time is 706 s.

On to `O=C(Cn1cnc2c(nc3n2CCCCC3)c1=O)N1CCN(Cc2ccc3c(c2)OCO3)CC1`, for which the RP-LC retention time turned out to be 588 s.

`CN(C)c1ccc(C(=O)NC2CCN(c3cc(-c4ccc(Cl)cc4)[nH]n3)C2)cc1` (centres undefined) gave an RP-LC retention time of 790 s.

Regarding `COCCN1CCn2cc(S(=O)(=O)Nc3ccc(C)c(C)c3)cc2C1=O`, the RP-LC retention time came to 745 s.

`Cc1nc(N)nc(N)c1-c1ccc(Cl)c(Cl)c1` registered an RP-LC retention time of 642 s.

`Cc1ccc(-n2c(=O)c3c(cc(C)n3C)n(CC(=O)Nc3ccccc3F)c2=O)cc1` yielded an RP-LC retention time of 841 s.

Regarding `O=C(c1ccc(N2CCNC(c3ccccc3)C2)nc1)N1CCSCC1` (centres undefined), the RP-LC retention time worked out at 606 s.

Turning to `CCCn1c(=O)sc2cc(S(=O)(=O)N3CCC(C(=O)Nc4cccc(C)c4)CC3)ccc21`, the RP-LC retention time is 1010 s.

`COCCn1ncc(N2CCC(NC(=O)C(C)(C)C)CC2)cc1=O`: the RP-LC retention time was determined as 607 s.

Take `Cc1ccc(-n2c(-c3ccc(Cl)cc3)cn3c4c(=O)n(C)c(=O)n(C)c4nc23)cc1N`: the RP-LC retention time stood at 870 s.

The compound `O=C(CCc1csc(NS(=O)(=O)c2ccccc2)n1)Nc1nc2ccccc2s1` returned an RP-LC retention time of 730 s.

On to `O=C(Cn1c2ccccc2c2ncn(Cc3nc(C4CC4)no3)c(=O)c21)Nc1ccc2c(c1)OCCO2`, for which the RP-LC retention time amounted to 808 s.

Take `Cc1ccc2[nH]cc(CCN3CC(C(=O)Nc4ccc(Br)cc4)CC3=O)c2c1` (centres undefined): the RP-LC retention time amounted to 916 s.

With `O=C(Nc1cccc(-c2nnc3n2CCCC3)c1)c1ccc2c(c1)OCO2`, the RP-LC retention time is 679 s.

Consider `Cc1ccc(-c2nc(C3CC(=O)N(c4ccc(Cl)cc4)C3)no2)cc1` (centres undefined), for which the RP-LC retention time worked out at 978 s.

`COc1ccc(/C=C/c2cc(O)cc(OC3OC(CO)C(O)C(O)C3O)c2)cc1O` (centres undefined) had an RP-LC retention time of 612 s.

Compound `O=C(Cc1cccs1)Nc1nnc(SCC(=O)N2CCCc3ccccc32)s1` had an RP-LC retention time of 805 s.

In the case of `O=C(NCc1noc(-c2ccco2)n1)c1coc(C2CC2)n1`, the RP-LC retention time is 736 s.

Take `CSc1ccc(-c2nc3ccc(C)cn3c2Nc2ccc3c(c2)OCCO3)cc1`: the RP-LC retention time amounted to 716 s.

In turn, `Cc1sc(NC(=O)c2ccccc2)nc1-c1ccc2c(c1)N(C)C(=O)CO2` returned an RP-LC retention time of 952 s.

With `CN(C)c1ccc(-c2nc3ncccn3c2Nc2cccc(C(F)(F)F)c2)cc1`, the RP-LC retention time amounted to 765 s.

`CCOc1ccccc1N1CC(c2nc3ccccc3n2CCN2CCOCC2)CC1=O` (centres undefined) registered an RP-LC retention time of 610 s.

Compound `Cc1cc(=O)n(CC(=O)Nc2ccc(Cl)cc2)c(N2CCc3ccccc3C2)n1` came in with an RP-LC retention time of 855 s.

`CC(C)NC(=O)CN1CCN(c2ncc(C(=O)Nc3ccccc3)c(N)n2)CC1` registered an RP-LC retention time of 609 s.

`O=C(NCc1ccccc1C(F)(F)F)c1cnc(-c2ccccc2)nc1-c1ccncc1` had an RP-LC retention time of 924 s.

With `COC(=O)c1ccc2c(=O)n(-c3ccc4c(c3)OCO4)c(N3CCCC3)nc2c1`, the RP-LC retention time amounted to 885 s.

For the compound `CCCCNC(=O)Cn1c(=O)c2cccn2c2ccc(F)cc21`, the RP-LC retention time is 773 s.

Consider `Cc1cc(C)n(-c2cc(NCCNC(=O)c3ccc(Br)o3)ncn2)n1`, for which the RP-LC retention time came out at 718 s.

As to `CCNc1cc(N2CCCC(CCC(=O)Nc3ccccc3)C2)ncn1` (centres undefined), the RP-LC retention time was found to be 669 s.

`COc1ccc(Cl)cc1NS(=O)(=O)c1c[nH]c2ncccc12` showed an RP-LC retention time of 763 s.

`OC[C@H]1O[C@@H](n2cnc3c(NC4CCCC4)nc(Cl)nc32)[C@@H](O)C1O` (some centres undefined): the RP-LC retention time was 713 s.

In turn, `O=C(NCc1nnnn1C1CCCCC1)c1cccs1` registered an RP-LC retention time of 715 s.

In turn, `COc1ccc(OC)c(NC(=O)CN2CC=C(c3cnn(C)c3)CC2)c1` registered an RP-LC retention time of 597 s.

`O=C(O)c1nnn(-c2ccc(C(F)(F)F)cc2)c1C(F)(F)F` came in with an RP-LC retention time of 824 s.

Consider `COc1cccc(N2CCN(c3ccnc(SCC(=O)Nc4cccc(Cl)c4)n3)CC2)c1`, for which the RP-LC retention time came to 827 s.

Regarding `Cc1nnc2n1CCC(NC(=O)c1ccsc1)CC2` (centres undefined), the RP-LC retention time worked out at 559 s.

As for `COC(=O)c1cc(OCC(=O)NC2CCCCC2)c2cc(OC)c(OC)cc2n1`, the RP-LC retention time was 725 s.

With `O=C(CN1CCC(c2nc(-c3ccc(F)cc3)no2)CC1)NC1CCCC1`, the RP-LC retention time turned out to be 678 s.

Take `CCOc1ccc(-n2c(=O)c3sccc3n(Cc3nc(-c4ccccc4)no3)c2=O)cc1`: the RP-LC retention time was determined as 1010 s.

`CCCC(=O)Nc1ccc(C(=O)Nc2nc(-c3ccccc3)cs2)cc1`: the RP-LC retention time turned out to be 912 s.

With `CN(C(=O)Cn1c(=O)oc2ccc(C(=O)N3CCCC3)cc21)C1CCCCC1`, the RP-LC retention time came out at 761 s.

`Cc1cc2c(N3CCCC(C(=O)N4CCN(c5ccccc5F)CC4)C3)nccc2s1` (centres undefined) returned an RP-LC retention time of 755 s.

`O=C(NCC(F)(F)F)C1CCN(C(=O)COc2ccccc2)CC1` yielded an RP-LC retention time of 676 s.

Take `CC(=O)Nc1cc2c(cc1S(=O)(=O)c1ccc(C)cc1)n(C)c(=O)n2C`: the RP-LC retention time was determined as 683 s.

In turn, `Cc1noc(-c2ccnc(SCC(=O)Nc3cccc(C(F)(F)F)c3)c2)n1` returned an RP-LC retention time of 933 s.

On to `O=C(NCc1ccccc1Cl)c1coc(NC(=O)c2cnccn2)n1`, for which the RP-LC retention time came to 643 s.

Compound `CCOCCc1c(O)nc(SC)[nH]c1=O` returned an RP-LC retention time of 650 s.

`N#Cc1cccc(-c2cn3c(n2)N(C(=O)c2ccncc2)CCC3)c1`: the RP-LC retention time was 611 s.

Regarding `c1ccc(-c2cnn3cc(-c4ccc(OCCN5CCOCC5)cc4)cnc23)cc1`, the RP-LC retention time was determined as 818 s.

The compound `CC(C)n1c(-c2cccc(C(=O)NCCN3CCCCC3)c2)nc2cccnc21` came in with an RP-LC retention time of 599 s.

`CCN(Cc1ccccc1)C(=O)Cn1nc2c(N3CCC(C)CC3)nccn2c1=O` had an RP-LC retention time of 861 s.

Turning to `O=C(Nc1ccc(Cl)cc1)C1CCCN(c2ncnc3c2nc2n3CCCCC2)C1` (centres undefined), the RP-LC retention time was found to be 877 s.

`CCCC(=O)Nc1nc(-c2ccc3c(c2)N(CCC)C(=O)CO3)cs1` registered an RP-LC retention time of 935 s.

In turn, `CCNC(=O)C1CCCN(c2nc3ncn(CC(=O)NCc4ccc(C)cc4)c(=O)c3s2)C1` (centres undefined) returned an RP-LC retention time of 716 s.

On to `Cc1ccc(-c2cn3cccnc3n2)cc1NC(=O)c1ccccc1Br`, for which the RP-LC retention time turned out to be 682 s.
